Consider four molecules from publication PMC7144376, “Antiviral Effects of Novel 2-Benzoxyl-Phenylpyridine Derivatives” (Molecules, 2020).

What all share (type): cell-based, Coxsackievirus B3
Test [1] deals with CVB3. In words: CVB3 progeny virus yield in Hep-2 cells (TCID50 titration). The note with it: 36 h, 120 μM W-9, 160 μM W-13, 160 μM W-15, 160 μM ribavirin. Here is the method: Based on their antiviral activities and therapeutic selectivity indices, the effects on virus progeny yields of compounds W9, W13, and W15 were further investigated, using ribavirin as a positive control drug. To this end, confluent monolayers of Hep-2 or HeLa cells in 96-well plates were infected with 100 × median tissue culture infective dose (TCID50) of CVB3 or ADV7, then treated with 120 μM W-9, 160 μM W-13, 160 μM W-15, or 160 μM ribavirin. After 36 h, culture media and cell lysates were collected, following freeze-thaw cycles, and then subjected to virus titration.
Figure 2 The effects of W9, W13, and W15 on progeny virus production. Hep-2 cells infected with 100 TCID50 of CVB3 (a), or HeLa cells infected with 100 TCID50 of ADV7(b), were incubated in the absence (virus control) or presence of 120 μM W-9, 160 μM W-13, 160 μM W-15, or 160 μM ribavirin for 36 h, and the culture media and cell lysates then harvested for virus titration. Viral titers are presented as Log10 TCID50/mL. * p < 0.05; ** p < 0.01, compared with the virus control group.
CVB3 or ADV7 suspensions, serially diluted 10-fold with DMEM containing 2% FBS (DMEM maintenance medium, MM), were inoculated to Hep-2 or HeLa cells in 96-well plates. After 1.5 h incubation at 37 °C in 5% CO2, unbound virus was washed out and the MM was added to the cells. After 2 days, infected cells were monitored for CPEs and virus titers were calculated using the Reed–Muench method.

For test [2], the system named is CVB3. In words: Viral release analysis. The note with it: Hep-2 cells, 12 h; intra- and extracellular titers; 120 μM W-9, 160 μM W-13, W-15, ribavirin. The procedure:
Figure 3 Analysis of the modes of action of W9, W13, and W15 against CVB3. (a) Analysis of effective stage. The antiviral effects of test compounds against CVB3 were detected by measuring cell viability after 48 h of infection when cells were treated with W9, W13, or W15 before, simultaneously, or after inoculation with CVB3 (100 TCID50). (b) Analysis of the effects on CVB3 adsorption. Mock-, 120 μM W-9-, 160 μM W-13-, 160 μM W-15-, or 160 μM ribavirin-treated CVB3 (10^6 TCID50) was inoculated onto Hep-2 cells and adsorbed for 2 h. Infected cells were then harvested and subjected to virus titration, using the TCID50 method. (c) The effects of test compounds on CVB3 release from Hep-2 cells. Hep-2 cells infected with 100 TCID50 of CVB3 were incubated with test compounds for 12 h, then cells and culture supernatants (intra- and extracellular) analyzed for virus yield, separately or together. Mock, no infection; VC, virus control. Values represent the means ± SDs of three independent experiments. * p < 0.05; ** p < 0.01, compared with the virus control group.
The viral life cycle is completed by release of progeny for further infection of neighboring cells. Therefore, we tested whether viral release from cells is affected by W9, W13, and W15. Hep-2 cells infected with 100 TCID50 of CVB3 were incubated with test compounds for 12 h, then both cells and supernatants (intra- and extracellular), or one of which was harvested separately, and virus yields were determined. Ribavirin was used as the positive control.
Hep-2 cells were treated with or without 120 μM W-9, 160 μM W-13, 160 μM W-15, or 160 μM ribavirin after infection with 100 TCID50 of CVB3. Supernatants and cells were harvested together or separately for the determination of progeny virus yields at 12 h pi by the Reed–Muench method.

For test [3], the system named is CVB3. In words: Time course of CVB3 progeny yield in Hep-2 cells. The settings on record: 160 μM, 32 h pi. The procedure: To further investigate the effects of these compounds on CVB3 replication, we analyzed the efficacy of representative compound, W13, in inhibiting viral progeny yield, RNA synthesis, and protein translation. Infected cells treated with or without 160 μM W-13 were harvested after 4 h, 8 h, 16 h and 32 h, viral progeny yields were determined using the Reed–Muench method, and quantitative reverse transcription polymerase chain reaction analysis of harvested cells were conducted, to evaluate the relative amounts of viral RNA. […] Figure 5b illustrates the efficacy of W-13 in inhibiting viral RNA synthesis. […]
Figure 5 Effect of W13 on CVB3 replication in Hep-2 cells. […] (a) Progeny virus yields were determined. (b) Viral RNA levels were measured by analysis of total RNA. […] (c) CVB3 protein levels were determined by indirect immunofluorescence, using the mouse anti-coxsackie virus B3 monoclonal antibody, MAB948, and an alexa-fluor-488-conjugated affiniPure goat anti-mouse IgG (H + L), after incubation with W13 for 24 h. […]
CVB3 or ADV7 suspensions, serially diluted 10-fold with DMEM containing 2% FBS (DMEM maintenance medium, MM), were inoculated to Hep-2 or HeLa cells in 96-well plates. […] After 2 days, infected cells were monitored for CPEs and virus titers were calculated using the Reed–Muench method.

Test [4] deals with CVB3 RNA. As to the kind of experiment: CVB3 RNA by quantitative reverse transcription-PCR. The settings on record: 160 μM, Hep-2 cells, 32 h pi, normalized to GAPDH. The procedure:
To further investigate the effects of these compounds on CVB3 replication, we analyzed the efficacy of representative compound, W13, in inhibiting viral progeny yield, RNA synthesis, and protein translation. Infected cells treated with or without 160 μM W-13 were harvested after 4 h, 8 h, 16 h and 32 h, viral progeny yields were determined using the Reed–Muench method, and quantitative reverse transcription polymerase chain reaction analysis of harvested cells were conducted, to evaluate the relative amounts of viral RNA. […] Figure 5b illustrates the efficacy of W-13 in inhibiting viral RNA synthesis. Viral RNA became detectable in the virus control group during the first 4 h pi, followed by significant increases at subsequent time points.
Figure 5 Effect of W13 on CVB3 replication in Hep-2 cells. Hep-2 cells infected with 100 TCID50 CVB3 were incubated in the absence or presence of 160 µM W13 and harvested at the indicated times post-infection. (a) Progeny virus yields were determined. (b) Viral RNA levels were measured by analysis of total RNA. GAPDH was amplified and the resulting data was used for normalization. […] (c) CVB3 protein levels were determined by indirect immunofluorescence, using the mouse anti-coxsackie virus B3 monoclonal antibody, MAB948, and an alexa-fluor-488-conjugated affiniPure goat anti-mouse IgG (H + L), after incubation with W13 for 24 h. […]

`NC(=O)c1ncn([C@@H]2O[C@H](CO)[C@@H](O)[C@H]2O)n1` [Ribavirin, reference compound]: in test [1], the “reduction in CVB3 virus progeny titer relative to untreated control” value is on record as “approximately 2.0 log”. Also, the “effect on CVB3 release from cells” value in test [2] was “do not act on viral release from cells”.

Regarding `O=C(Oc1cc(Cl)ccc1-c1ccccn1)c1ccccc1` [W9], in test [1], the “reduction in CVB3 virus progeny titer relative to untreated control” value is “approximately 2.5 log”. Further, in test [2], the “effect on CVB3 release from cells” value was “do not act on viral release from cells”.

Consider `Cc1ccc(OC(=O)C(C)(C)C)c(-c2ccccn2)c1` [W13], for which the “reduction in CVB3 virus progeny titer relative to untreated control” value in test [1] is on record as “approximately 2.5 log”. In addition, the “effect on CVB3 release from cells” value in test [2] is recorded as “do not act on viral release from cells”. The “reduction in viral replication (progeny virus titer)” value in test [3] is on record as ~3.0 log. Besides, the “reduction of viral RNA copy numbers” value in test [4] is listed as “approximately 500 fold”.

Take `CC(=O)Oc1ccc(-c2ccccn2)c(OC(=O)c2ccccc2)c1` [W15]: the “reduction in CVB3 virus progeny titer relative to untreated control” value in test [1] is listed as “approximately 2.5 log”. For the same molecule, the “effect on CVB3 release from cells” value in test [2] is on record as “do not act on viral release from cells”.
